Values joined by “and” are separate entries in the source; they are usually repeats but may differ in a detail not shown here. Equal values may be shown once.
Tests used:
[1] = Liquid; for mass density: 298.15 K, 101.33 kPa, Vibrating tube method
[2] = Boiling temperature at pressure P; conditions: 101.33 kPa; Liquid; Ebulliometric method (Recirculating still)
[3] = refractive index (Na D-line) (dimensionless); conditions: 298.15 K; 101.33 kPa; Liquid; Standard Abbe refractometry

CCC(C)(C)OC [2-methoxy-2-methylbutane]
Conditions	Boiling temperature at pressure P [°C]	mass density [kg/m3]	refractive index
[1]	–	765.83	–
[2]	86.37	–	–
[3]	–	–	1.38712

[1]
Conditions	vapor or sublimation pressure [kPa]
313.44 K	20.01
318.99 K	25.01
323.68 K	30.01
327.77 K	35.01
331.41 K	40.01
334.69 K	45.01
337.64 K	50
337.66 K	50
337.69 K	50.01
340.46 K	55.01
343.03 K	60.01
345.89 K	66.01
348.97 K	73.01
349.73 K	75
349.8 K	75
351.84 K	80.01
354.52 K	87.01
356.92 K	94
357.02 K	94.01
357.04 K	94
359.95 K	102.73

CCC(C)O (stereo not given) [butan-2-ol]
Conditions	mass density [kg/m3]	refractive index
[1]	802.98	–
[3]	–	1.39676

[1]
Conditions	vapor or sublimation pressure [kPa]
334.83 K	20.01
339.42 K	25.01
343.31 K	30.01
346.69 K	35.01
349.69 K	40.01
352.38 K	45.01
354.84 K	50.01
354.91 K	50
355.12 K	50
357.11 K	55.01
359.21 K	60.01
361.55 K	66.01
364.08 K	73.01
364.8 K	75
365.2 K	75
366.4 K	80.01
368.58 K	87.01
370.61 K	94.01
370.66 K	94
371.17 K	94

CCCCCCC [heptane]
Conditions	Boiling temperature at pressure P [°C]	mass density [kg/m3]	refractive index
[1]	–	679.55	–
[2]	98.4	–	–
[3]	–	–	1.38668

[1]
Conditions	vapor or sublimation pressure
319.06 K	16.01 kPa
329.07 K	24.01 kPa
334.91 K	30.01 kPa
339.08 K	35.01 kPa
342.78 K	40.01 kPa
346.14 K	45.01 kPa
349.19 K	50.01 kPa and 50 kPa
349.24 K	50 kPa
352.01 K	55.01 kPa
354.63 K	60.01 kPa
357.1 K	65.01 kPa
359.42 K	70.01 kPa
361.59 K	75.01 kPa
361.6 K	75 kPa
361.66 K	75 kPa
363.67 K	80.01 kPa
366.41 K	87.01 kPa
368.98 K	94 kPa
368.99 K	94.01 kPa
369.04 K	94 kPa
371.63 K	101.74 kPa
